Experimental data published in patent US12606561B2, “Substituted pyrazolo[1,5-a][1,3,5]triazines as CDK inhibitors” (QURIENT CO., LTD., priority 2018, dated 2026).

Columns and labels:
CDK2/Cyclin A = target: T1, CDK2/Cyclin A (Homo sapiens, UniProt P24941); assay: Enzymatic assay for CDK2 (LANCE Ultra kinase assay, FRET based); assay type: biochemical; details: ATP at Km
T1 construct: purchased Invitrogen PV6290
In short: (§1)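 Compounds tested as 8 doses in 4-fold steps against CDK2/Cyclin A ([…]) or CDK5/p25 ([…]), with ATP at its Km and 68 nM ULight-MBP substrate. After 60 min at 23° C., EDTA plus Eu-labelled anti-phospho-MBP added; TR-FRET (615/665 nm) read after another 60 min.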

CDK1/Cyclin B = target: T2, CDK1/Cyclin B (Homo sapiens, UniProt P06493); assay: Enzymatic assay for CDK1 (LANCE Ultra kinase assay, FRET based); assay type: biochemical; details: ATP at Km; read-out: CDK1 enzymatic activity IC50
T2 construct: purchased Invitrogen PR4768C
T2 sequence (P06493 whole entry): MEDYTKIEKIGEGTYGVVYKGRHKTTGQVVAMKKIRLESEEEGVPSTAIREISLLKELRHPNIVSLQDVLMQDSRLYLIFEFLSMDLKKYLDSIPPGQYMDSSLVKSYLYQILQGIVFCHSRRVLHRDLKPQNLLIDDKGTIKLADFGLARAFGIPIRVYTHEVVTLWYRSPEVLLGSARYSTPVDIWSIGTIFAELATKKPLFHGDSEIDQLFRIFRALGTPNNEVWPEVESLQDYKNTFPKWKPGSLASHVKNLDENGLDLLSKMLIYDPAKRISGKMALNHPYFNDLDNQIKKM
T2 sequence (P14635 whole entry partner): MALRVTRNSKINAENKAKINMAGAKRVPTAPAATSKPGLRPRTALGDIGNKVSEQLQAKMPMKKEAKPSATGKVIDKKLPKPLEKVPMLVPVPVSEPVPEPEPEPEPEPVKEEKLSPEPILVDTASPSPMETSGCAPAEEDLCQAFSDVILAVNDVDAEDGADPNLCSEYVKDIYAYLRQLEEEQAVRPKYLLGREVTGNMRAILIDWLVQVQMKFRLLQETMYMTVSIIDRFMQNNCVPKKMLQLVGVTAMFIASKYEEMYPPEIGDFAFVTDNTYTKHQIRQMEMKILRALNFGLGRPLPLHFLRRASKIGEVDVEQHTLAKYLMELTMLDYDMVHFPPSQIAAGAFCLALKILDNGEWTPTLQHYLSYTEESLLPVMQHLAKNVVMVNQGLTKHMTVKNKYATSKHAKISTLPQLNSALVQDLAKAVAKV
In short: (§2)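 TR-FRET (LANCE Ultra) kinase assays with a ULight-labelled peptide substrate and a Europium-labelled anti-phospho antibody. ATP was set at its Km for each kinase. Inhibition was measured on purified CDK/cyclin complexes: CDK7/Cyclin H/MNAT1 and CDK1/Cyclin B.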

OVCAR-3 = OVCAR-3 viability assay (CellTiter-Glo, 72 hours); assay type: cell-based; details: Homo sapiens; OVCAR-3 cells
In short: (§3)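 Cells in RPMI-1640 with 10% FBS were seeded (MV4-11 1×10^4, OVCAR-3 5×10^3, A2780 1×10^3 cells/well) and treated 24 h later with compound at 0.0015–10 uM, final DMSO under 0.1%. After 72 h at 37 °C, viability was read by CellTiter-Glo luminescence, in duplicate.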

A2780 = A2780 viability assay (CellTiter-Glo, 72 hours); assay type: cell-based; details: Homo sapiens; A2780 cells
In short: as §3

CDK5/p25 = target: T3, CDK5/p25 (Homo sapiens, UniProt Q00535); assay: Enzymatic assay for CDK5 (LANCE Ultra kinase assay, FRET based); assay type: biochemical; details: ATP at Km
T3 construct: purchased Invitrogen PR8543B
T3 sequence (Q00535 whole entry): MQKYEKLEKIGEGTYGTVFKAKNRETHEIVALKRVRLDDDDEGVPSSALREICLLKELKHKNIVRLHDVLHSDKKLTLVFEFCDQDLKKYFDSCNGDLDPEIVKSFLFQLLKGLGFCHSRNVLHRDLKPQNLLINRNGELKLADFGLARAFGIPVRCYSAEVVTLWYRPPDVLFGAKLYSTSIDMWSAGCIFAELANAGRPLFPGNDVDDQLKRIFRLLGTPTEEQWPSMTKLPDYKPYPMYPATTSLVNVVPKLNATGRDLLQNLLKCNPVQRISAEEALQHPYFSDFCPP
T3 sequence (Q15078 99-307 partner limits assumed): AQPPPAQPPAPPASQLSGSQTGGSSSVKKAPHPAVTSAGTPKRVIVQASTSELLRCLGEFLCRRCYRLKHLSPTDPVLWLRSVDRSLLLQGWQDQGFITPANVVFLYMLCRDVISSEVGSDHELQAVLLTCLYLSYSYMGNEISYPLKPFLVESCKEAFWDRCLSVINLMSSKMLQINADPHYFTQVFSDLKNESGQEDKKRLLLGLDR
In short: as §1

CDK7/Cyclin H/MNAT1 = target: T4, CDK7/Cyclin H/MNAT1 (Homo sapiens, UniProt P50613); assay: Enzymatic assay for CDK7 (LANCE Ultra kinase assay, FRET based); assay type: biochemical; details: for IC50: ATP at Km
T4 construct: purchased Invitrogen PR6749B
T4 sequence (P50613 whole entry): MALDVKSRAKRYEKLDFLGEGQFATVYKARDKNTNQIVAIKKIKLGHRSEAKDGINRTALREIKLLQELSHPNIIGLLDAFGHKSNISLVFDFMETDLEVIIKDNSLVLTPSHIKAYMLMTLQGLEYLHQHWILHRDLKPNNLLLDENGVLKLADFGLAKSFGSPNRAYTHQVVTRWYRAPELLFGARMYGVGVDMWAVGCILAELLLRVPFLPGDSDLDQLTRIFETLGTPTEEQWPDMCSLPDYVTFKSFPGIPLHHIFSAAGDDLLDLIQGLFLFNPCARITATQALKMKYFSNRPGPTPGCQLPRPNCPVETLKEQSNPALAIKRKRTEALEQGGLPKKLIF
T4 sequence (P51946 whole entry partner): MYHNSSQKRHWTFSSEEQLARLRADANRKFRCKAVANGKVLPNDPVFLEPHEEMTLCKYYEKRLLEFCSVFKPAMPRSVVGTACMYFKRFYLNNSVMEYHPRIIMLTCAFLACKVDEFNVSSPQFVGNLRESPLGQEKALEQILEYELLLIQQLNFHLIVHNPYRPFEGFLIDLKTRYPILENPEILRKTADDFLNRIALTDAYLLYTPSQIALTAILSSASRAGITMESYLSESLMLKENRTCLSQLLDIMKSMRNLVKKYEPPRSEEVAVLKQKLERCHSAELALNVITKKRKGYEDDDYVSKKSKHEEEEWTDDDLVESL
T4 sequence (P51948 whole entry partner): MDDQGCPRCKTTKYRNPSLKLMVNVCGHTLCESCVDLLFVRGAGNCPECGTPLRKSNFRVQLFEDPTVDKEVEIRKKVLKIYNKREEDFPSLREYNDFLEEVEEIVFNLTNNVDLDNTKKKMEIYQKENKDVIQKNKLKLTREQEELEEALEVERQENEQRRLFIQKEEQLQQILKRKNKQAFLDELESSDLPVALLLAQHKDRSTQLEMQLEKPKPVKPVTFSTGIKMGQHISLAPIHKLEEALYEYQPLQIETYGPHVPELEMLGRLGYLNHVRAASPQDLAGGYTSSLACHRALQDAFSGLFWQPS
In short: as §2

| SMILES | IC50 (CDK2/Cyclin A) [nM] | IC50 (CDK1/Cyclin B) [nM] | IC50 (OVCAR-3) [nM] | IC50 (A2780) [nM] | IC50 (CDK5/p25) [nM] | IC50 (CDK7/Cyclin H/MNAT1) [nM] | CDK1/CDK7: Selectivity of CDK7 inhibition over CDK1 inhibition (CDK7/Cyclin H/MNAT1) | CDK2/CDK7: Selectivity of CDK7 inhibition over CDK2 inhibition (CDK7/Cyclin H/MNAT1) | CDK5/CDK7: Selectivity of CDK7 inhibition over CDK5 inhibition (CDK7/Cyclin H/MNAT1) |
| --- | --- | --- | --- | --- | --- | --- | --- | --- | --- |
| C=C(F)C(=O)Nc1ccc2c(-c3ccccc3CNc3nc(NC[C@H]4CCN(C)C[C@@H]4O)nc4c(C(C)C)cnn34)nccc2c1 [Compound 164] | > 1000 | > 1000 | < 1000 | < 1000 | > 1000 | < 100 | A (A indicates [fold] > 500) | A (A indicates [fold] > 500) | A (A indicates [fold] > 500) |
| C=C(F)C(=O)Nc1ccc2c(-c3ccccc3CNc3nc(NC[C@H]4CNC[C@@H]4O)nc4c(C(C)C)cnn34)nccc2c1 [Compound 83] | > 1000 | > 1000 | < 1000 | < 1000 | > 1000 | < 100 | A (A indicates [fold] > 500) | A (A indicates [fold] > 500) | A (A indicates [fold] > 500) |
| CO[C@H]1CC[C@H](Nc2nc(NCc3c(C)cccc3-c3ccc4cccc(NC(=O)/C=C/CN(C)C)c4n3)n3ncc(C(C)C)c3n2)CC1 [Compound 127] | > 1000 | > 1000 | < 1000 | < 1000 | > 1000 | 100 to 1000 | B (B indicates 50 < [fold] ≤ 500) | B (B indicates 50 < [fold] ≤ 500) | B (B indicates 50 < [fold] ≤ 500) |
| C=CC(=O)Nc1ccc2c(-c3ccccc3CNc3cc(N4C5CCC4CC(OC)C5)nc4c(C(C)C)cnn34)nccc2c1 (stereo not drawn) [Compound 119] | > 1000 | > 1000 | < 1000 | < 1000 | > 1000 | 100 to 1000 | B (B indicates 50 < [fold] ≤ 500) | B (B indicates 50 < [fold] ≤ 500) | B (B indicates 50 < [fold] ≤ 500) |
| CC(C)c1cnn2c(NCc3ccccc3-c3nccc4cc(NC(=O)/C=C/CN(C)C)ccc34)nc(OC3CC4CCC(C3)N4C)nc12 (stereo not drawn) [Compound 122] | > 1000 | > 1000 | < 1000 | < 1000 | > 1000 | < 100 | A (A indicates [fold] > 500) | A (A indicates [fold] > 500) | A (A indicates [fold] > 500) |
| C=CC(=O)Nc1ccc2c(-c3ccccc3CNc3nc(N4CCS(=O)(=O)CC4)nc4c(C(C)C)cnn34)nccc2c1 [Compound 113] | > 1000 | > 1000 | < 1000 | < 1000 | > 1000 | < 100 | B (B indicates 50 < [fold] ≤ 500) | B (B indicates 50 < [fold] ≤ 500) | B (B indicates 50 < [fold] ≤ 500) |
| CC(C)c1cnn2c(NCc3ccccc3-c3nccc4cc(NC(=O)/C=C/CN(C)C)ccc34)nc(N3CC4CCC(C3)N4C)nc12 [Compound 123] | > 1000 | > 1000 | < 1000 | < 1000 | > 1000 | < 100 | A (A indicates [fold] > 500) | A (A indicates [fold] > 500) | A (A indicates [fold] > 500) |
| CC(C)c1cnn2c(NCc3ccccc3-c3nccc4cc(NC(=O)/C=C/CN(C)C)ccc34)nc(NC3CCC(C)(C)NC3)nc12 (stereo not drawn) [Compound 179] | > 1000 | > 1000 | < 1000 | < 1000 | > 1000 | < 100 | A (A indicates [fold] > 500) | A (A indicates [fold] > 500) | A (A indicates [fold] > 500) |
| CC(C)c1cnn2c(NCc3ccccc3-c3nccc4cc(NC(=O)/C=C/CN(C)C)ccc34)nc(N[C@H]3CC[C@H](C)NC3)nc12 [Compound 151] | > 1000 | > 1000 | < 1000 | < 1000 | > 1000 | < 100 | A (A indicates [fold] > 500) | A (A indicates [fold] > 500) | A (A indicates [fold] > 500) |
| C=C(F)C(=O)Nc1ccc2c(-c3ccccc3CNc3nc(NC[C@@H]4CCNC[C@@H]4O)nc4c(C(C)C)cnn34)nccc2c1 [Compound 162] | > 1000 | > 1000 | 1000 to 10000 | < 1000 | > 1000 | < 100 | A (A indicates [fold] > 500) | A (A indicates [fold] > 500) | A (A indicates [fold] > 500) |
| C=C(F)C(=O)Nc1ccc2c(-c3ccccc3CNc3nc(O[C@@H]4CCCNC4)nc4c(C(C)C)cnn34)nccc2c1 [Compound 137] | > 1000 | > 1000 | < 1000 | < 1000 | > 1000 | < 100 | A (A indicates [fold] > 500) | A (A indicates [fold] > 500) | A (A indicates [fold] > 500) |
| C=C(F)C(=O)Nc1ccc2c(-c3ccccc3CNc3cc(NC[C@H]4CCNC[C@@H]4O)nc4c(C(C)C)cnn34)nccc2c1 [Compound 82] | > 1000 | > 1000 | < 1000 | < 1000 | > 1000 | < 100 | A (A indicates [fold] > 500) | A (A indicates [fold] > 500) | A (A indicates [fold] > 500) |
| CC(C)c1cnn2c(NCc3ccccc3-c3nccc4cc(NC(=O)/C=C/CN(C)C)ccc34)nc(NC3CCC(F)(F)CC3)nc12 [Compound 147] | > 1000 | > 1000 | < 1000 | < 1000 | > 1000 | < 100 | A (A indicates [fold] > 500) | A (A indicates [fold] > 500) | A (A indicates [fold] > 500) |
| C=C(F)C(=O)Nc1ccc2c(-c3ccccc3CNc3cc(NCC4CNCCO4)nc4c(C(C)C)cnn34)nccc2c1 (stereo not drawn) [Compound 94] | > 1000 | > 1000 | < 1000 | < 1000 | > 1000 | < 100 | A (A indicates [fold] > 500) | A (A indicates [fold] > 500) | A (A indicates [fold] > 500) |
| CC(C)c1cnn2c(NCc3ccccc3-c3nccc4cc(NC(=O)/C=C/CN(C)C)ccc34)nc(N3CCC(S(=O)(=O)N(C)C)CC3)nc12 [Compound 126] | > 1000 | > 1000 | < 1000 | < 1000 | > 1000 | 100 to 1000 | B (B indicates 50 < [fold] ≤ 500) | B (B indicates 50 < [fold] ≤ 500) | B (B indicates 50 < [fold] ≤ 500) |
| C=C(F)C(=O)Nc1ccc2c(-c3ccccc3CNc3nc(-c4cccc(OC5CCNC5)c4)nc4c(C(C)C)cnn34)nccc2c1 (racemic) [Compound 87] | > 1000 | > 1000 | < 1000 | < 1000 | > 1000 | < 100 | A (A indicates [fold] > 500) | A (A indicates [fold] > 500) | A (A indicates [fold] > 500) |
| C=C(F)C(=O)Nc1ccc2c(-c3ccccc3CNc3nc(NCC4CNCCO4)nc4c(C(C)C)cnn34)nccc2c1 (racemic) [Compound 80] | > 1000 | > 1000 | < 1000 | < 1000 | > 1000 | < 100 | A (A indicates [fold] > 500) | A (A indicates [fold] > 500) | A (A indicates [fold] > 500) |
